The values that follow come from publication PMC9181543, “Lysosomal Exocytosis of Olivacine on the Way to Explain Drug Resistance in Cancer Cells” (International Journal of Molecular Sciences, 2022).

In series [1] the test system is MCF-7 cells. Also noted: method as in PMID 11755121. The note with it: 48 h exposure; cited from earlier work.
The test system of a further series is CCRF/CEM cells. Also noted: method as in PMID 11755121. The note with it: 48 h exposure; cited from earlier work.
In series [2] the test system is MCF-7 cells. Also on record: method as in PMID 15896464. The conditions noted are these: cited from earlier work.
The next series concerns Saos-2 cells. Also noted: method as in PMID 12881704. The note with it: cited from earlier work.
The subject of a further series is T24 cell. Also noted: method as in PMID 28138703. The note with it: T24 cell study; cited from earlier work.
A further series deals with pancreatic cancer cells. Also noted: method as in PMID 10737712. The conditions noted are these: 1 μM; cited from earlier work.
For series [3], the system named is A549, MCF-7, LoVo, LoVo/DX, CCRF/CEM, and NHDF cells. As to the kind of experiment: MTT assay, whole cell line panel. The note with it: Homo sapiens, range across all cell lines, read-out: IC50 range over the cell lines. The format is cell-based. The protocol:
The anticancer activity of tested compounds was assessed on five human cell lines selected from the panel of tumor cell lines recommended by the National Cancer Institute: A495 (lung carcinoma), CCRF/CEM (acute lymphoblastic leukemia), LoVo and LoVo/DX (two types of colorectal: non-resistant and resistant to doxorubicin), and MCF-7 (breast adenocarcinoma). In addition, the NHDF cell line (normal human dermal fibroblasts) was used to estimate cytotoxicity to noncancer cells. The A549, CCRF/CEM, LoVo, LoVo/DX, and MCF-7 cells were obtained from ECACC, and NHDF cells from LONZA, Belgium. The A549 and MCF-7 cells were grown in EMEM medium, CCRF/CEM cells in RPMI-1640, LoVo and LoVo/DX cells in DMEM/F-12, and NHDF cells in DMEM without phenol red. The cells were seeded in […] in the biological assay, as recommended by the National Cancer Institute. All culture media were supplemented with L-glutamine, penicillin, streptomycin, and 10% fetal bovine serum (FBS). […]
An assessment of the mitochondrial cell activity after applying tested compounds was carried out using the test MTT assay, recommended in the ISO 10993-5:2009 standard. […] After 30 min, absorbance at 570 nm in Victor2 microplate reader (PerkinElmer). Cell viability was determined as the IC50 ratio, i.e., the concentration of the compound in which the viability was reduced by half compared with the control.
(Formazan colour is commonly taken as a measure of viable cells.)

Another series deals with NHDF cells. The series can be described thus: Cell morphology, microscopic observation, NHDF. Type of series: cell-based, human. The note with it: NHDF normal cells, 24 h incubation. The protocol:
Olivacine, similar to ellipticine, is a compound with fluorescent properties. Therefore, by analyzing the intensity of fluorescence over time, it is possible to assess the cellular pharmacokinetics of the compounds. At the same time, cell morphology was also assessed. The cells were seeded into a 96-well plate and cultured for 24 h (37 °C, 5% CO2) for cell adhesion to the surface and regeneration. […] The culture plate was placed under a Juli microscope, and the device with the plate inside was put in the CO2 incubator. Pictures were taken every 15 min for 24 h. We have prepared software that allowed us to measure the fluorescence intensity of the indicated cells. Fluorescence analysis was performed for all images (every 15 min) during a period of rapid change in fluorescence intensity and less often at a later period when it stabilized. Three independent experiments were carried out, always analyzing 50 selected cells.

Several values for one entry are separate records, joined by “and”; a condition that tells them apart may be missing. Equal entries are not always repeated. Where two headings read alike, the source gives them in different places.

A word on the IC50: it is the point on the concentration scale where inhibition reaches its midpoint. As to `Cc1c2ccncc2c(C)c2c1[nH]c1ccccc12` [Ellipticine], the IC50 in the series with MCF-7 cells [1] was 1.25 ± 0.13 µM; in the series with CCRF/CEM cells it was 4.7 ± 0.48 µM; in the series with MCF-7 cells [2], 1.52 µM. In addition, in the series with Saos-2 cells, the “concentration at which apoptosis was induced” value is 8 µM and 10 µM. The cell cycle effect entry is “stops the cell cycle in the G2/M phase” in the series with T24 cell; “arrest cell cycle progression in both G1 and G2/M phases” in the series on pancreatic cancer cells.

As for `Cc1nccc2c(C)c3[nH]c4ccccc4c3cc12` [Olivacine, 1,5-dimethyl-6H-pyrido[4,3-b]carbazole], the IC50 in series [3] fell in the range of 12 to 26 µM. Further, the cell morphology result is “did not negatively affect cell morphology” with NHDF cells (2 μM), “normal” in the series with NHDF cells (5 μM) and “only a few fibroblast cells have been disintegrated” in the series with NHDF cells (20 μM).
